Data from patent publication US9139523B2, “5-HT2B receptor antagonists” (Janssen Pharmaceutica, NV, priority 2010, dated 2015).
Read-outs that look alike come from different tables or passages of the source.

Tests used:
[1] = Cardiovascular effects in the anaesthetized guinea-pig; format: in vivo; settings: female, plasma, iv, guinea pig, end of 5-min i.v. infusion; for concentration at 5 min: read-out: Median plasma level; for Cmax: read-out: Median plasma level (Cmax)
Protocol: Female guinea-pigs were anesthetized with sodium pentobarbital (66 mg/kg i.p.) followed by a continuous i.v. infusion of 6 mg/h of sodium pentobarbital and prepared for measurements of the surface electrocardiogram (ECG), heart rate and mean arterial blood pressure (see De Clerck et al, Fundam. Clin. Pharm.; 2002; 16: 125-140). Compound (−)-17 was dissolved in 20% hydroxypropyl-cyclodextrin with NaOH, HCl and mannitol in pyrogen-free water and administered intravenously (0.5 ml/kg) in increasing doses (0.16, 0.32, 0.64, 1.25, 2.5 and 5 mg/kg) over a period of 5 min at 15-min intervals. Plasma concentrations of Compound (−)-17 were measured at the end of each infusion. Corresponding volumes of vehicle were administered according to the same protocol in a second group of animals.

[2] = Pharmacokinetic evaluation in the mouse; format: in vivo; settings: male CD1 mouse
Protocol: For intravenous (i.v.) administration, Compound (−)-17 was dissolved in saline containing 20% (w/v) hydroxy-propyl-beta-cyclodextrin (HPbCD) at a concentration of 0.25 mg/mL and administered (10 mL/kg) to male CD1 mice (n=3) as a bolus via a tail vein at a dose level of 2.5 mg/kg. For oral (p.o.) administration, Compound (−)-17 was dissolved in water containing 20% (w/v) HPbCD at a concentration of 0.5 mg/mL and administered (20 mL/kg) to male CD1 mice (n=3) via gavage at a dose level of 10 mg/kg. Blood samples were collected via a saphenous vein at serial time points up to 24 h after dosing. Plasma was obtained by centrifugation and stored at −20° C. prior to analysis. Analysis was performed using liquid chromatography (LC) with tandem mass spectrometric detection (MS/MS) in positive ion mode. Compound (−)-17 was eluted from a reversed phase column with a gradient of acetonitrile and water containing 0.1% (v/v) formic acid. At the time of analysis plasma samples (20 uL) were thawed and […] with 200 uL of acetonitrile and centrifuged. Aliquots of the supernatant were injected onto a reversed phase UPLC column and analysed via electrospray Mass Spectrometry. Calibration standards and quality controls, analysed before and after the study samples, were prepared in mouse plasma at the same time as […]. The accuracy (intra branch accuracy from independent QC samples) was between 85% and 115% of the nominal value over the entire concentration range. Non-compartmental pharmacokinetic analysis of the plasma concentration-time curves was performed using WinNonLin to provide estimates of the plasma clearance (CLp), volume of distribution at steady-state (Vss), terminal phase elimination half-life ([…]) and oral bioavailability (F), the results are summarised in Table 8.

[3] = Pharmacokinetic evaluation in the rat; format: in vivo; settings: male Sprague Dawley rat
Protocol: For intravenous (i.v.) administration, Compound (−)-17 was dissolved in saline containing 20% (w/v) hydroxy-propyl-beta-cyclodextrin (HPbCD) at a concentration of 1 mg/mL and administered (2.5 mL/kg) to male Sprague Dawley rats (n=1) as a bolus via a saphenous vein at a dose level of 2.5 mg/kg. For oral (p.o.) administration, Compound (−)-17 was dissolved in water containing 20% (w/v) HPbCD at a concentration of 1 mg/mL and administered (10 mL/kg) to male Sprague Dawley rats (n=3) via gavage at a dose level of 10 mg/kg. Blood samples were collected via a tail vein at serial time points up to 24 h after dosing. Plasma was obtained by centrifugation and stored at −20° C. prior to analysis. Analysis was performed using liquid chromatography (LC) with tandem mass spectrometric detection (MS/MS) in positive ion mode. Compound (−)-17 was eluted from a reversed phase column with a gradient of acetonitrile and water containing 0.1% (v/v) formic acid. At the time of analysis plasma samples (50 uL) were thawed and […] with at least three volumes of acetonitrile and centrifuged. Aliquots of the supernatant were injected onto a reversed phase UPLC column and analysed via electrospray Mass Spectrometry. Calibration standards and quality controls, analysed before and after the samples, were prepared in rat plasma at the same time as the study samples. The accuracy (intra branch accuracy from independent QC samples) was between 85% and 115% of the nominal value over the entire concentration range. Non-compartmental pharmacokinetic analysis of the plasma concentration-time curves was performed using WinNonLin to provide estimates of the plasma clearance (CLp), volume of distribution at steady-state (Vss), terminal phase elimination half-life (t½) and oral bioavailability (F), the results are summarised in Table 8.

5HT2B = 5HT2B (Homo sapiens, UniProt P41595); assay: 5-HT2B antagonism, FLIPR intracellular calcium in transfected CHO-K1 cells; format: cell-based; set-up: expressed in transfected cells; host or cells: CHO-K1 (ECACC); settings: for IC50: CHO-K1 cells, response to 0.1 nM serotonin, Fluo-3 FLIPR; for Kb: modified Cheng Prusoff equation from IC50, read-out: 5-HT2B antagonism KB (apparent dissociation constant)
Protocol: CHO-K1 (ECACC) cells were stably transfected with human 5-HT2B receptor cDNA subcloned into pCDNA3.1 using the calcium phosphate method. Stably transfected cell lines were selected using G-418, and clonal cell lines were developed by limit dilution. Cell lines were cultured in Dulbecco's modified Eagle Medium (DMEM) containing 10% heat inactivated dialyzed foetal bovine serum (FBS), 1% penicillin-streptomycin, 1% L-glutamine and 1% non-essential amino acids.
Confluent monolayers plated into black 96 well plates with clear bottoms were loaded with 4 μM Fluo-3-AM for 90 min at 37° C. in Hanks balanced salt solution supplemented with 20 mM HEPES and 2.5 mM probenecid. After washing, the test compound was added to the cells and maximal fluorescence in response to 0.1 nM serotonin was recorded using a fluorometric imaging plate reader (FLIPR) to detect changes in intracellular calcium levels.
The maximal fluorescence recorded in the presence of the test compound was expressed as a percent of the maximal fluorescence response to the agonist serotonin (0.1 nM). […] The apparent dissociation constant (KB) was calculated using the modified Cheng Prusoff equation (KB=IC50/(1+(A/EC50A)), where A=concentration of serotonin, and EC50A=EC50 value of serotonin in this assay). (Porter et al. (1999), Br. J. Pharmacol., 128: 13-20)

[4] = p.o. 10 mg/kg vs i.v. 2.5 mg/kg
[5] = plasma, intravenous, 2.5 mg/kg, read-out: t½ (converted)

5HT2B, sequence (P41595 whole entry): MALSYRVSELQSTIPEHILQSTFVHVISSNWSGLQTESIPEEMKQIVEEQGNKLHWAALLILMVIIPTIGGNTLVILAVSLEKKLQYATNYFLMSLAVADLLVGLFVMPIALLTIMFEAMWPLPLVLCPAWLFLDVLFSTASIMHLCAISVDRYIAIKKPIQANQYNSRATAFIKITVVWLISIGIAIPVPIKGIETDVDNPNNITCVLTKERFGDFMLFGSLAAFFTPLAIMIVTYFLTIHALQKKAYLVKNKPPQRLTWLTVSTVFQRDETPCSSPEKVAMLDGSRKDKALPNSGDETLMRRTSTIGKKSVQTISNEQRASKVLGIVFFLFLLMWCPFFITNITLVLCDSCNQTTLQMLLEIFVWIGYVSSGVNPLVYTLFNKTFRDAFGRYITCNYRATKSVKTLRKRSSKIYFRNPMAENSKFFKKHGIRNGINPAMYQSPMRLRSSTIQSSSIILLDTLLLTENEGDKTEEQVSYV

COc1cc(N)c(Cl)cc1C(=O)NC1CCN(CCCOc2ccc(F)cc2)CC1(F)F (single isomer, unassigned) [Compound (−)-17, 4-amino-5-chloro-N-{3,3-difluoro-1-[3-(4-fluorophenoxy)-propyl]-piperidin-4-yl}-2-methoxybenzamide] gave a concentration at 5 min ([1]; dose 0.16 mg/kg (increasing doses, 15-min intervals)) of 398 ng/mL, a concentration at 5 min ([1]; dose 0.32 mg/kg (increasing doses, 15-min intervals)) of 873 ng/mL and a concentration at 5 min ([1]; dose 0.64 mg/kg (increasing doses, 15-min intervals)) of 1820 ng/mL. The concentration at 5 min ([1]; dose 1.25 mg/kg (increasing doses, 15-min intervals)) was 3330 ng/mL, the Cmax ([1]; dose 2.5 mg/kg (increasing doses, 15-min intervals)) was 6320 ng/mL and the Cmax ([1]; dose 5 mg/kg (increasing doses, 15-min intervals; total dose 9.87 mg/kg)) was 12000 ng/mL. For the same molecule, the F [2, 4] was 52%, the half-life [2, 5] was 84 ± 12 min and the clearance ([2]; plasma, iv, i.v. 2.5 mg/kg) was 20 ± 6 mL/min/kg. It also gave a Vd ([2]; plasma, iv, i.v. 2.5 mg/kg, read-out: Vss) of 1.9 ± 0.6 L/kg, an AUC(0-t) ([2]; plasma, po, p.o. 10 mg/kg) of 4440 ± 1090 ng·h/mL and a Cmax ([2]; plasma, po, p.o. 10 mg/kg) of 1580 ± 165 ng/mL. For the same molecule, the Tmax ([2]; plasma, po, p.o. 10 mg/kg) was 30 min, the F [3, 4] was 19% and the half-life [3, 5] was 66 min. For the same molecule, the clearance ([3]; plasma, iv, i.v. 2.5 mg/kg (n=1)) was 46 mL/min/kg, the Vd ([3]; plasma, iv, i.v. 2.5 mg/kg (n=1), read-out: Vss) was 3.1 L/kg and the AUC(0-t) ([3]; plasma, po, p.o. 10 mg/kg) was 686 ± 254 ng·h/mL. The Cmax ([3]; plasma, po, p.o. 10 mg/kg) was 119 ± 37 ng/mL, the Tmax ([3]; plasma, po, p.o. 10 mg/kg) was 30 min and the IC50 (5HT2B) was 1.6 nM. It also gave a Kb (5HT2B) of 0.55 nM.

In the case of COc1cc(N)c(Cl)cc1C(=O)N[C@@H]1CCN(CCCOc2ccc(F)cc2)C[C@H]1F (racemic) [(±)-7, trans-4-amino-5-chloro-N-{3-fluoro-1-[3-(4-fluorophenoxy)-propyl]-piperidin-4-yl}-2-methoxybenzamide], the IC50 (5HT2B) is reported as 60 nM and the Kb (5HT2B) is reported as 20 nM.

Molecule COc1cc(N)c(Cl)cc1C(=O)NC1CCN(CCCOc2ccc(F)cc2)CC1(F)F (single isomer, unassigned; (+)) [(+)-17, 4-amino-5-chloro-N-{3,3-difluoro-1-[3-(4-fluorophenoxy)-propyl]-piperidin-4-yl}-2-methoxybenzamide] has an IC50 (5HT2B) of 33 nM and a Kb (5HT2B) of 11 nM.

In the case of COc1cc(N)c(Cl)cc1C(=O)N[C@H]1CCN(CCCOc2ccc(F)cc2)C[C@H]1F (racemic) [(±)-12, cis-4-amino-5-chloro-N-{3-fluoro-1-[3-(4-fluorophenoxy)-propyl]-piperidin-4-yl}-2-methoxybenzamide], the IC50 (5HT2B) is reported as 12 nM and the Kb (5HT2B) is reported as 4.2 nM.
